# Calls of active or inactive are those of the source.
# What was measured:
# [1] = tested on: H9c2; assay: cells; format: functional, cell-based; conditions: Rattus norvegicus, H9c2, Myocardium;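 further: confirmatory concentration-response retest of ultra-high-throughput screening hits for modulation of myocardial damage; cell death induced by hydrogen peroxide oxidative stress; compound pretreatment for 60 min then peroxide exposure for 2 h; potency is for protecting the cells against peroxide damage rather than for killing them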
# [2] = target: Large T antigen (Simian virus 40, UniProt P03070); format: functional, Betapolyomavirus macacae;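 further: Confirmatory-stage PubChem screen for compounds that inhibit SV40 T antigen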
# [3] = target: FAD-linked sulfhydryl oxidase ALR (Homo sapiens, UniProt P55789); assay: inhibitors of human ALR sulfhydryl oxidase, dose response, biochemical, H2O2 detection, luminescence, cherry-pick (AID 493248)
# [4] = tested on: INS1; assay: beta cell apoptosis inhibitors, cytokine rescue, dose response, luminescence, retest (AID 449756); format: functional, cell-based; conditions: Rattus norvegicus;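 further: cell death triggered by IL-1 beta plus TNF-alpha plus IFN-gamma mixture; protective hits raise ATP signal compared with cytokine alone wells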
# [5] = target: T1, Replicative DNA helicase DnaB (Mycobacterium tuberculosis, UniProt P9WMR3); assay: DnaB intein splicing inhibitors, dose response, biochemical, cell-free fluorescence (AID 449749); format: functional
# T1 sequence (P9WMR3 whole entry): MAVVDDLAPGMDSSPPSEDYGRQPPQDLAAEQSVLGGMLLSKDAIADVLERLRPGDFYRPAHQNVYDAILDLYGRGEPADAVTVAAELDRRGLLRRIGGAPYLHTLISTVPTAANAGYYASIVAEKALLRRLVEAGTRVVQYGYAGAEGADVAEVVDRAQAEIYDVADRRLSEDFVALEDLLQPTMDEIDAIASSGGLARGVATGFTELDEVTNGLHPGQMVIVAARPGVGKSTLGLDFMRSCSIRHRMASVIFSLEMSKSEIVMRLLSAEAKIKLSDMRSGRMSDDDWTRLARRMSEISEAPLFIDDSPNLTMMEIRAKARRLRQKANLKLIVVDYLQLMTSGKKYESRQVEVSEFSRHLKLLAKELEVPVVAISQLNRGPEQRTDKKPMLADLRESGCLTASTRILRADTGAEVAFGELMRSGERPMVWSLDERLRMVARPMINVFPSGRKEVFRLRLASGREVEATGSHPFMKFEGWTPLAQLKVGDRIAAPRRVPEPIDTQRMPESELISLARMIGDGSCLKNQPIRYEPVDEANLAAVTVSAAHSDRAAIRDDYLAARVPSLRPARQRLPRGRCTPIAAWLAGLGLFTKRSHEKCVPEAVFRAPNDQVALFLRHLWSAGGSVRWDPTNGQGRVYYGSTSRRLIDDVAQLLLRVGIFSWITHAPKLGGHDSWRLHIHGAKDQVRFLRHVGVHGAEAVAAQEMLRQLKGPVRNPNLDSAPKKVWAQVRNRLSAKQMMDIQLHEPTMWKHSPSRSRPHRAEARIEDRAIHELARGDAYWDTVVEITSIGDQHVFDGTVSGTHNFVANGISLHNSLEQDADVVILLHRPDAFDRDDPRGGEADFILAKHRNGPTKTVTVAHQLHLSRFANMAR
# [6] = target: T2, Protein RecA (Mycobacterium tuberculosis, UniProt P9WHJ3); assay: Fluorescence Cell-Free Homogeneous Dose Retest to Identify Inhibitors of RecA-Intein Splicing Activity. [Related pubchem assays (depositor defined):AID2097, AID2223, AID489010, AID492950]; format: functional
# T2 sequence (P9WHJ3 whole entry): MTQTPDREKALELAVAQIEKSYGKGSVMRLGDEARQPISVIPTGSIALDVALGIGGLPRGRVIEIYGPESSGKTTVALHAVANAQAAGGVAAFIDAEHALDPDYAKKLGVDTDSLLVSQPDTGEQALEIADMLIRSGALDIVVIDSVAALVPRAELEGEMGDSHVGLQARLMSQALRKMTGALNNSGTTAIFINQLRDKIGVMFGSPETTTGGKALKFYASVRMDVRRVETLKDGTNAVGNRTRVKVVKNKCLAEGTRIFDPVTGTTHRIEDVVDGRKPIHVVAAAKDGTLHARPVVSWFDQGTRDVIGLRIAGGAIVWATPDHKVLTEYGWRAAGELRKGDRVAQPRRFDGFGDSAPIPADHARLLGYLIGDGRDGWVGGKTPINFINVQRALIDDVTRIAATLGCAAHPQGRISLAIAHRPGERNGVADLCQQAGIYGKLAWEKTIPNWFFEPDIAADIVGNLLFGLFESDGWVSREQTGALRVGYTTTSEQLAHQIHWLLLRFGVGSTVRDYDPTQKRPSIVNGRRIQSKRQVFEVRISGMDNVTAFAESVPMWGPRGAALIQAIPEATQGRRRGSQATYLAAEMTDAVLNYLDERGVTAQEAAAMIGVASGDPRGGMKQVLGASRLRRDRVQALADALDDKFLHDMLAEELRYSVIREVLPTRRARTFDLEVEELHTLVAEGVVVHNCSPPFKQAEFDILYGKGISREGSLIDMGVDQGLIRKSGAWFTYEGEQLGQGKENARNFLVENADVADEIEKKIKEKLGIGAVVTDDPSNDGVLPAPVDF
# [7] = target: Induced myeloid leukemia cell differentiation protein Mcl-1 (Homo sapiens, UniProt Q07820); format: functional
# [8] = target: T3, Heat shock factor protein 1 (Mus musculus, UniProt P38532); assay: inhibition of MG132-induced HSE-luciferase signal, confirmation, cell-based, NIH3T3, luminescence, dose retest (AID 2382); format: functional;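 further: NIH3T3 fibroblasts with HSF1-driven luciferase reporter stressed by proteasome inhibitor MG132; luminescence from HSF1-driven luciferase expression after 8 hours of MG132 stress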
# T3 sequence (P38532 whole entry): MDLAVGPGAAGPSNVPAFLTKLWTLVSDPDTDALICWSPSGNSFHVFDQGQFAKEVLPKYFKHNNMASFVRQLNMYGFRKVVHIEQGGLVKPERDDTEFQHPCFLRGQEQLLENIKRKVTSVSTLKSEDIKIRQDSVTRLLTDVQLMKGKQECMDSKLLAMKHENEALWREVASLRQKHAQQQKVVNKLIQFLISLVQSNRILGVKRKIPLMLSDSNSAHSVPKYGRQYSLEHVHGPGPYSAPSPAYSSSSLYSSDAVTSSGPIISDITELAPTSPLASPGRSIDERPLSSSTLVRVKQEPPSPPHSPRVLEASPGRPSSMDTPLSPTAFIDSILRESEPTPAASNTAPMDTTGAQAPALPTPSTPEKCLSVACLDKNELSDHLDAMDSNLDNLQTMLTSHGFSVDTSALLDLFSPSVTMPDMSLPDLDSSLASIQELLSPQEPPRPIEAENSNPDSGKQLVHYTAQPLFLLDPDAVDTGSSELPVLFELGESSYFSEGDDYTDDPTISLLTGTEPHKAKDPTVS
# [9] = tested on: HEK293; assay: inhibitors of LMP1-driven NF-kB reporter, dose response, cell-based, HEK293, luciferase, cherry-pick (AID 588343); format: functional; conditions: Homo sapiens
# [10] = target: T4, RNA-binding protein pos-1 (Caenorhabditis elegans, UniProt G5EF15); assay: inhibitors of POS-1/mex-3 RNA binding, dose response, biochemical, fluorescence polarization (AID 1964);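 further: purified POS-1 fused to maltose binding protein made in E. coli; potency of compounds blocking POS-1 binding to fluorescent RNA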
# T4 sequence (G5EF15 whole entry): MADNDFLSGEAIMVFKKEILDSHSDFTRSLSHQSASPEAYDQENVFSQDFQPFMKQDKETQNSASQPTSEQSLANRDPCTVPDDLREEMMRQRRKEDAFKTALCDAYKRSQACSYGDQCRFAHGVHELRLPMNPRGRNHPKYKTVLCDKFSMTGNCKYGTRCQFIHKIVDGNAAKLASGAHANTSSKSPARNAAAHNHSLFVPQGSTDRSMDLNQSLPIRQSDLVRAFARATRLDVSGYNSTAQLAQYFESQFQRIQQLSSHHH
# [11] = target: T5, Zinc finger protein mex-5 (Caenorhabditis elegans, UniProt Q9XUB2); assay: MEX-5/TCR-2 RNA interaction inhibitors, dose response, biochemical, C. elegans, fluorescence polarization (AID 1960)
# T5 sequence (Q9XUB2 whole entry): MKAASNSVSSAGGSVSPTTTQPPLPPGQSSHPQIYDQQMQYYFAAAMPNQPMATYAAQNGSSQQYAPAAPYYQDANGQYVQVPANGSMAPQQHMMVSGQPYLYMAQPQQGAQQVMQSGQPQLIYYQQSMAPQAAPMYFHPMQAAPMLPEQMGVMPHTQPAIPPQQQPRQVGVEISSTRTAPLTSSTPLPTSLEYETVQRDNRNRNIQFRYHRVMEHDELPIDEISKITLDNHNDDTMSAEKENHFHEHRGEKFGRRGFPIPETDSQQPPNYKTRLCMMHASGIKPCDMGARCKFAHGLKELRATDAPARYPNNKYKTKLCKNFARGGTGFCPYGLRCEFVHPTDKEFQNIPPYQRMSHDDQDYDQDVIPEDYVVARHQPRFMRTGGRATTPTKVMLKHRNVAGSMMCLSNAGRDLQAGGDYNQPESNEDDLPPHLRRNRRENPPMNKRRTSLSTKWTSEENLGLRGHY
# [12] = target: Luciferin 4-monooxygenase (Photinus pyralis, UniProt P08659); assay: firefly luciferase enzyme inhibitors, dose response, biochemical, luminescence (AID 1891)
# [13] = Luminescence Cell-Based Dose Confirmation HTS to Identify Inhibitors of Platelet Dense Granule Release. [Related pubchem assays: 1663 (Primary HTS), 1678 (Summary of Project)]; format: functional
# [14] = target: Cytochrome P450 2D6 (Homo sapiens, UniProt P10635);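 further: CYP2D6 member of a cytochrome P450 panel assay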
# Chain of Cytochrome P450 2D6 (P10635 whole entry): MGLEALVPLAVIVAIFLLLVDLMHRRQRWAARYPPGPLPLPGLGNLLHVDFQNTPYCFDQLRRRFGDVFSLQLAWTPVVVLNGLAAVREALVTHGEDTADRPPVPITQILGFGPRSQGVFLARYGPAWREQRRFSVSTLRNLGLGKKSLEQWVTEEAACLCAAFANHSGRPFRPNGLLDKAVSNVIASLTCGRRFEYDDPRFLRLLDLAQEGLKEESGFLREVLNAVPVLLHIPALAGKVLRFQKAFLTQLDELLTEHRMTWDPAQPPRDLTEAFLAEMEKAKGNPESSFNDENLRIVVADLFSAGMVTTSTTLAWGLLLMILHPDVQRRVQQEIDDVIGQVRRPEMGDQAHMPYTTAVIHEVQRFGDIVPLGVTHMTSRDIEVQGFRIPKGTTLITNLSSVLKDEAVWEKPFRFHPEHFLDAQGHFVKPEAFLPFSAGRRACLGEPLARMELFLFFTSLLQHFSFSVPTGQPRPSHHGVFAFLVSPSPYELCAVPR
# Chain of Large T antigen (P03070 whole entry): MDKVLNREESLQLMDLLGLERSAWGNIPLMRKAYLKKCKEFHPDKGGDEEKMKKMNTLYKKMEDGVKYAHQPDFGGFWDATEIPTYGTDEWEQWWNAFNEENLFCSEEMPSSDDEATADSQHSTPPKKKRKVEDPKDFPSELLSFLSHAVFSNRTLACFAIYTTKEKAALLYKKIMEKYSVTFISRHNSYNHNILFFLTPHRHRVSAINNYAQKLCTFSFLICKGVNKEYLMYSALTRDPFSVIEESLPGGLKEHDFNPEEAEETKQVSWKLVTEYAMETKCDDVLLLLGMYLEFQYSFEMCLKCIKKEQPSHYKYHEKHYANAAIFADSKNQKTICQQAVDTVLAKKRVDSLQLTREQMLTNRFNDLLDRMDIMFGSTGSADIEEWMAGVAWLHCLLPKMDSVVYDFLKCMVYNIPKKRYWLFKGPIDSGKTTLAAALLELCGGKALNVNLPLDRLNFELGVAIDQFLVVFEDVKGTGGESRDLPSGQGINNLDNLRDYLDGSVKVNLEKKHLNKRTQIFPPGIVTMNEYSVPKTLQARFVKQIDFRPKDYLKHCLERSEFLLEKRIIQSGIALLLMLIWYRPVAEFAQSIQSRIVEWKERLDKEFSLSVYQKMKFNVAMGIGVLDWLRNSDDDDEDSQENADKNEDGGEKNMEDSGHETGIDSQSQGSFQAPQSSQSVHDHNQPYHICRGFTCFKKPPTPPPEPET
# Chain of Induced myeloid leukemia cell differentiation protein Mcl-1 (Q07820 whole entry): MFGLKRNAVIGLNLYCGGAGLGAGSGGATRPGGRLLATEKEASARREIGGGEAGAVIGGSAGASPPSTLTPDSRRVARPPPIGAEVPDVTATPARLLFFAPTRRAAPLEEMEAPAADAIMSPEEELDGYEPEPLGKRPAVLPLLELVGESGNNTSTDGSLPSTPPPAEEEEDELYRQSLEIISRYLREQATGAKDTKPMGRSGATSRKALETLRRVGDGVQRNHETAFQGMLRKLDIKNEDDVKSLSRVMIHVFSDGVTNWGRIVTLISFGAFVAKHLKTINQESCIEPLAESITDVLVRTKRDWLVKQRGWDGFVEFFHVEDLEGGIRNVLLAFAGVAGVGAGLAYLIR
# Chain of FAD-linked sulfhydryl oxidase ALR (P55789 whole entry): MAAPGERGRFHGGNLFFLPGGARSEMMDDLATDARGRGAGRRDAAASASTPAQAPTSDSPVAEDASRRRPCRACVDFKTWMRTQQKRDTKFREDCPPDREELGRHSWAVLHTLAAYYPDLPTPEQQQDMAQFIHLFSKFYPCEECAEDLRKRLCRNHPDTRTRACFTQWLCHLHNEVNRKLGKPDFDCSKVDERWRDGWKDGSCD
# Chain of Luciferin 4-monooxygenase (P08659 whole entry): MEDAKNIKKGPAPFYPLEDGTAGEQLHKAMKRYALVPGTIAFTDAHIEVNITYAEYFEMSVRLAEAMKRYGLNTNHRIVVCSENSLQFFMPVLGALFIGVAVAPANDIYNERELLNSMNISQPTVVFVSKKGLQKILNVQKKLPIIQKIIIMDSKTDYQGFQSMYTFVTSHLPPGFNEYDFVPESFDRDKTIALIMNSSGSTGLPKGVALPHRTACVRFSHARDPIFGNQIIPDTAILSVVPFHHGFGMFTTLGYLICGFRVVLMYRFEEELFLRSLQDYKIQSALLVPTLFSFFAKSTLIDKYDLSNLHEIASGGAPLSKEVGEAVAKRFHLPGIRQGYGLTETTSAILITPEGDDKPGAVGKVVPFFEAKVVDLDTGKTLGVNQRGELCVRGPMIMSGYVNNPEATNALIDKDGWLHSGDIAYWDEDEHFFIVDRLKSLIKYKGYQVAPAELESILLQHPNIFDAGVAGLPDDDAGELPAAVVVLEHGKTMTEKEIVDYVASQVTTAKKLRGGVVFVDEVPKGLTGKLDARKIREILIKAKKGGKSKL
smiles,measurement,setting,value
O=C(Oc1ccc(N(Cc2cccs2)C2=NS(=O)(=O)c3ccccc32)cc1)c1ccccc1Cl,IC50,[1],23.2 µM (active)
NNC(=O)c1cc(-c2ccccc2)sc1N,IC50,[2],17.2 µM (active)
same,AC50,[3],8.45 µM (active)
O=C(Nc1ccc(Cl)c(Cl)c1)N1CCSC1c1ccco1 (stereo unspecified),AC50,[4],11.8 µM (active)
CCN(CC)c1ccc(C2C(C(=O)OC(C)C)C(=O)CC(C)(O)C2C(=O)OC(C)C)cc1 (stereo unspecified),IC50,[1],> 79 µM (inactive)
CC(C)c1n[nH]c2c1C(c1cccnc1)C(C#N)=C(N)O2 (stereo unspecified),AC50,[5],1.78 µM (active)
same,EC50,[6],1.81 µM (inconclusive)
CCCc1n[nH]c(O)c1C(c1ccc(Br)cc1)C(C#N)C#N (stereo unspecified),AC50,[3],2.24 µM (active)
same,AC50,[5],5.5 µM (active)
same,EC50,[6],4.06 µM (active)
CCn1c(SCC(=O)Nc2ccc(OC)cc2)nc2nc3c(cc2c1=O)CCCC3,AC50,[4],38.7 µM (active)
CN(C)c1ccc(C(CNC(=O)c2ccc(F)cc2)c2c[nH]c3ccccc23)cc1 (stereo unspecified),IC50,[7],3.08 µM (not active)
CN(C)c1ccc(NC(=O)c2ccc3[nH]cnc3c2)cc1,IC50,[2],6.99 µM (active)
O=C(O)CCC(=O)Nc1ccc(SSc2ccc(NC(=O)CCC(=O)O)cc2)cc1,IC50,[2],5.39 µM (active)
N#Cc1c(-c2ccco2)cc(-c2cccnc2)nc1N,IC50,[1],> 79 µM (inactive)
CCOc1ccc(N=Nc2c(N)n[nH]c2O)cc1,EC50,[8],> 195 µM (not active)
same,AC50,[5],15.3 µM (active)
same,EC50,[6],3.85 µM (active)
CSc1nc(=S)n(-c2ccc([N+](=O)[O-])cc2)c(C)c1C(C)=O,AC50,[5],40.3 µM (active)
same,EC50,[6],12.1 µM (active)
O=C(Nc1ccc(O)cc1)/C(=C\c1cccs1)NC(=O)c1ccccc1,IC50,[2],23 µM (active)
COc1ccc(C(=O)Nc2nnc(SCC(=O)NC3CC3)s2)cc1,AC50,[9],4.42 µM (active)
Cc1ccccc1NP(=O)(Oc1ccccc1F)Oc1ccccc1F,IC50,[1],> 79 µM (inactive)
CCCOc1cccc(C2C(C(=O)c3ccco3)=C(O)C(=O)N2c2nnc(C)s2)c1 (stereo unspecified),EC50,[10],51.9 µM (active)
same,EC50,[11],82.7 µM (active)
C=CCNC(S)=NNC(=O)c1cc(O)ccc1O,IC50,[2],> 100 µM (active)
COC(=O)C1CCN(C(=O)c2cc(-c3ccc(Cl)s3)nc3ccccc23)CC1,AC50,[4],3.98 µM (active)
CCN(CC)C(=O)c1cc2c(=O)c3cc(Cl)ccc3oc2nc1C,EC50,[10],> 300 µM (not active)
same,EC50,[11],> 300 µM (not active)
Oc1nc(CN2CC=C(c3ccccc3)CC2)nc2cc(C(F)(F)F)ccc12,EC50,[12],> 112 µM (not active)
same,EC50,[13],> 112 µM (not active)
same,AC50,[9],> 350 µM (inactive)
Cc1cc(O)c(C(C)C)cc1N=C1CSC(=O)N1,EC50,[10],38.9 µM (active)
same,EC50,[11],34.6 µM (active)
COc1ccc(-c2ccc3c(n2)sc2c(=O)[nH]c(=O)[nH]c23)cc1OC,IC50,[7],1.76 µM (active)
Cc1c(NC(=O)CSc2ccc(Cl)cc2)cccc1-c1nc2cc(Cl)ccc2o1,EC50,[10],> 300 µM (not active)
same,EC50,[11],> 300 µM (not active)
CNc1nc2cc([N+](=O)[O-])c([N+](=O)[O-])cc2nc1NC,AC50,[4],0.32 µM (active)
O=C1NC(=O)N(Cc2ccccc2)C(=O)/C1=C/Nc1ccc(CN2CCOCC2)cc1,EC50,[10],> 300 µM (not active)
same,EC50,[11],> 300 µM (not active)
COc1cc(-c2cc(C(=O)OCC(=O)NC3CC3)c3ccccc3n2)cc(OC)c1OC,IC50,[1],> 79 µM (inactive)
COc1ccccc1NC(=O)c1cc(-c2ccc(OC)c(OC)c2)nc2ccccc12,IC50,[1],> 79 µM (inactive)
Cc1ccccc1NC(=O)COc1cccc2c1CCNC2=O,IC50,[1],13.9 µM (active)
O=C(Cn1[nH]c(=O)c2ccccc2c1=O)NC1CCN(Cc2ccccc2)CC1,IC50,[1],> 79 µM (inactive)
COc1ccc(/C=N/NC(=O)c2cc[nH]n2)cc1COc1ccc(Cl)cc1,IC50,[1],> 79 µM (inactive)
same,AC50,[14],25.1 µM (inconclusive)
O=C(O)CCc1nc(-c2cccs2)no1,IC50,[7],17.6 µM (not active)
Cc1ccc(Sc2c(C)[nH]n(C(C)(C)C)c2=O)cc1,AC50,[5],30 µM (active)
same,EC50,[6],1.47 µM (active)
Cc1ccc(C(=O)Nc2cccc(C(=O)N/N=C/c3ccccc3F)c2)cc1,AC50,[9],7.43 µM (active)
COCCn1/c(=N/C(=O)c2nc3ccccc3s2)sc2cc(S(C)(=O)=O)ccc21,IC50,[1],> 79 µM (inactive)

# — ChEMBL document CHEMBL1201862, “PubChem BioAssay data set” (2004)
